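A five-concentration, 48-hour dose response in 96-well plates underlies each endpoint, interpolated linearly between surrounding concentrations. GI50 is the concentration that inhibits growth by half. At the TGI there is no net growth.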

Data on 15 compounds can be found in PubChem BioAssay (NCI).

Common to all, as to assay: NCI anticancer screen, dose series, 48 h
Assay [1] has as its system MOLT-4 leukemia.
Assay [2] concerns A498 renal.
The subject of assay [3] is UO-31 renal.
The test system of assay [4] is CCRF-CEM leukemia.
Assay [5] has as its system NCI-H522 lung.
Assay [6] relates to COLO 205 colon.
Assay [7] has as its system SNB-19 CNS.
For assay [8], the system named is K-562 leukemia.
Assay [9] relates to SK-MEL-28 melanoma.
The test system of assay [10] is HCT-15 colon.

On to `Cc1ccc(C)c(N2CCN(c3ccncc3N)CC2)c1`, for which the GI50 in assay [1] is 25.6 µM; in assay [2] it was 3.65 µM; in assay [3] it was 17.2 µM; in assay [4] it was 21.5 µM; in assay [5], 9.97 µM; in assay [6], 13.8 µM. Moreover, the GI50 in [7] was 28.8 µM; in assay [8], 8.67 µM; in assay [9] it was 19.6 µM; in [10] it was 5.61 µM. Further, the TGI in assay [1] amounted to 91.2 µM; in [2], 25.9 µM; in assay [3], 96.3 µM; in assay [4], 94.3 µM; in [5], 26.7 µM; in [6], 27.1 µM. The TGI was greater than 100 µM in [7], 57.1 µM in [8], 40.8 µM in assay [9] and greater than 100 µM in assay [10].

`Oc1ccccc1/C=N\NC(=S)Nc1ccc(F)cc1`: the GI50 in [1] was 0.586 µM; in assay [2] it was 4.65 µM; in [3], 0.472 µM; in [4], 0.396 µM; in assay [5], 2.16 µM; in assay [6], 4.8 µM. In addition, the GI50 in assay [7] was 2.32 µM; in assay [8], 0.582 µM; in [9] it was 2 µM; in [10], 0.529 µM. In addition, the TGI is greater than 31.1 µM in assay [1]; 49.3 µM in assay [2]; 4.97 µM in assay [3]; greater than 49.4 µM in assay [5]; greater than 43 µM in [6]; greater than 100 µM in assay [7]. Besides, the TGI in assay [8], in assay [9] and in assay [10] was greater than 100 µM in each case.

For `NS(=O)(=O)c1cccc(Nc2cc(-c3ccc(F)cc3)[nH]n2)c1`, the GI50 in assay [1] was greater than 25 µM; in assay [2], 18.4 µM; in assay [3], 14.6 µM; in assay [4], 23 µM; in [5] it was greater than 25 µM; in assay [6] it was greater than 25 µM. In addition, the GI50 in assay [7] was greater than 25 µM; in assay [8], greater than 25 µM; in assay [9], greater than 25 µM; in [10] it was 19.3 µM. In addition, the TGI in assay [1], in [2], in assay [3], in [4], in assay [5] and in [6] was greater than 25 µM each time. The TGI in assay [7], in [8], in [9] and in [10] was greater than 25 µM each time.

On to `N#Cc1ccc2c(-c3ccnc(NC4CC4)n3)c(-c3ccc(F)cc3)nn2c1`, for which the GI50 in [1] is greater than 25 µM; in assay [2], greater than 25 µM; in assay [3] it was 6.78 µM; in assay [4] it was greater than 25 µM; in assay [5], greater than 25 µM; in assay [6], greater than 25 µM. The GI50 in assay [7], in assay [8], in [9] and in [10] was greater than 25 µM each time. Further, the TGI in assay [1], in assay [2], in assay [3], in [4], in assay [5] and in [6] was greater than 25 µM each time. Further, the TGI in assay [7], in assay [8], in [9] and in assay [10] was greater than 25 µM throughout.

In the case of `O=C(NCCN1CCOCC1)c1cc2c(Oc3ccc(NC(=O)C4(C(=O)Nc5ccc(F)cc5)CC4)cc3)ccnc2[nH]1`, the GI50 in [1] is 3.48 µM; in [2], 0.833 µM; in [3] it was 1.15 µM; in assay [4], 11 µM; in [5] it was 7.69 µM; in assay [6], 4.48 µM. Also, the GI50 in assay [7] was 14.2 µM; in [8], 4.27 µM; in assay [9] it was 4.37 µM; in assay [10] it was 12.5 µM. The TGI in assay [1] was greater than 100 µM; in assay [2] it was 11.8 µM; in assay [3], greater than 32.9 µM; in assay [4], greater than 100 µM; in assay [5] it was 28.1 µM; in [6], greater than 48.7 µM. The TGI in assay [7] was greater than 100 µM; in assay [8] it was 42.2 µM; in assay [9], 19.4 µM; in [10] it was greater than 100 µM.

Consider `CN(C)NC(=O)NC12CC3CC(CC(C3)C1)C2`, for which the TGI in assay [1], in assay [2], in assay [3], in assay [4], in [5] and in [6] was greater than 100 µM in each case. For the same compound, the TGI was greater than 100 µM in [7], greater than 100 µM in [8], greater than 10 µM in assay [9] and greater than 100 µM in assay [10].

Regarding `O=[N+]([O-])c1ccc(N=P(c2ccccc2)(c2ccccc2)c2ccccc2)n2nnnc12`, the TGI in assay [1], in assay [2], in assay [3], in assay [4], in assay [5] and in assay [6] was greater than 100 µM each time. Further, the TGI in [7], in assay [8], in assay [9] and in assay [10] was greater than 100 µM throughout.

Turning to `COC1=CC(=O)C2(C=C1OC)OC[C@H]1Oc3c(ccc4c3C=CC(C)(C)O4)C(=O)[C@H]12` (some centres undefined), the TGI is 85.6 µM in [1]; greater than 100 µM in assay [2]; greater than 100 µM in assay [3]; greater than 100 µM in [4]; 51.5 µM in [5]; greater than 100 µM in assay [6]. The TGI in assay [7], in assay [8] and in assay [9] was greater than 100 µM throughout.

Regarding `COC(=O)C(=O)C(C(=O)C(=O)Nc1cc(C)ccc1C)c1nc2ccccc2[nH]c1=O` (centres undefined), the TGI in assay [1], in assay [2], in assay [3], in assay [4], in [5] and in [6] was greater than 100 µM each time. For the same compound, the TGI in assay [7], in assay [8], in assay [9] and in assay [10] was greater than 100 µM each time.

For the compound `O=C(CC1(O)C(=O)Nc2ccc(Cl)cc21)c1ccc(C(=O)NCC2CCC3(CC2)OOC2(CCCCC2)OO3)cc1` (centres undefined), the GI50 was 2.05 µM in [1]; 10.2 µM in assay [2]; 1.22 µM in [4]; 0.292 µM in assay [5]; 3.09 µM in assay [6]; 4.19 µM in assay [7]. The GI50 in [8] was 1.89 µM; in assay [9] it was 3.33 µM; in [10], 3.06 µM. For the same compound, the TGI came out at 5.09 µM in assay [1]; 28 µM in [2]; 3.99 µM in [4]; 1.37 µM in assay [5]; 12.3 µM in assay [6]; 23.6 µM in [7]. For the same compound, the TGI stood at 4.48 µM in assay [8], 17.9 µM in assay [9] and 17.2 µM in assay [10].

Turning to `CC(C)(c1ccc(C=O)o1)c1ccc(C(C)(C)c2ccc(C=O)o2)o1`, the TGI in assay [1], in assay [2], in assay [4], in assay [5], in [6] and in assay [7] was greater than 100 µM throughout. The TGI in assay [8] and in assay [9] was greater than 100 µM each time.

For the compound `COC(=O)[C@]12CC[C@@H](C)[C@H](C)[C@@H]1C1=CC[C@@H]3[C@@]4(C)C[C@@H](OC(C)=O)[C@H](OC(C)=O)[C@@](C)(COC(C)=O)[C@@H]4[C@H](O)C[C@@]3(C)[C@]1(C)CC2`, the GI50 is 0.901 µM in assay [1]; 1.92 µM in assay [2]; 1.96 µM in [4]; 1.92 µM in [5]; 0.513 µM in assay [6]; 3.54 µM in [7]. In addition, the GI50 in assay [8] was 0.356 µM; in assay [9] it was 2.74 µM; in assay [10], 0.43 µM. For the same compound, the TGI was 11.5 µM in [1]; 68.5 µM in [2]; greater than 100 µM in assay [4]; 89 µM in assay [5]; 6.25 µM in assay [6]; greater than 100 µM in assay [7]. Besides, the TGI in [8], in assay [9] and in assay [10] was greater than 100 µM throughout.

On to `NC1(C(=O)O)CCC(C(=O)O)CC1` (centres undefined), for which the TGI in assay [1], in assay [2], in [3], in [4], in [5] and in assay [6] was greater than 100 µM each time. Further, the TGI in [7], in assay [8] and in [9] was greater than 100 µM in each case.

Turning to `COc1ccc2c(Cl)cc(NC(=S)Nc3ccccc3)nc2c1`, the TGI in assay [1] is 72.2 µM; in [2], 48.1 µM; in assay [4] it was 90.9 µM; in assay [5], 34.8 µM; in assay [6], greater than 100 µM; in [7], 46.5 µM. In addition, the figures for the TGI in assay [8], in [9] and in assay [10] were 60.2 µM, 97.9 µM and greater than 100 µM, respectively.

As for `CCN(CC)c1ccc(N=Nc2ccc(-c3nc4cccnc4s3)cc2)cc1`, the TGI in [1], in assay [2], in assay [3], in assay [4], in [5] and in [6] was greater than 100 µM each time. Moreover, the TGI in [7], in assay [8] and in assay [9] was greater than 100 µM each time.
